Structures can show the parent of a compound that is named as a salt. Where two headings read alike, the source gives them in different places.
Target: T1, Human IP6K1 (Homo sapiens, UniProt Q92551)
T1 construct: GST (N, cleaved yes); made in house; host or cells: C43 E. coli, pGEX-6P-2
Assay: IP6K1 high-throughput screen of the Sigma LOPAC (ADP-Glo Max, single point);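 also: final compound concentration 10µM in 5% DMSO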
Type: biochemical

[1] = LOPAC single-point screen, ADP-Glo Max raw signal per well
[2] = LOPAC single-point screen, Z-score from raw signal with plate average and StDev
[3] = LOPAC single-point screen, Z-score against plate average and StDev
[4] = LOPAC single-point screen, ADP-Glo Max luminescence raw signal per well
[5] = LOPAC single-point screen, Z-score relative to plate average and StDev
[6] = Sigma LOPAC single-point screen, ADP-Glo Max raw signal per well
[7] = Sigma LOPAC single-point screen, Z-score from plate average and StDev
[8] = LOPAC single-point screen, Z-score from plate average and StDev

T1 sequence (Q92551 whole entry): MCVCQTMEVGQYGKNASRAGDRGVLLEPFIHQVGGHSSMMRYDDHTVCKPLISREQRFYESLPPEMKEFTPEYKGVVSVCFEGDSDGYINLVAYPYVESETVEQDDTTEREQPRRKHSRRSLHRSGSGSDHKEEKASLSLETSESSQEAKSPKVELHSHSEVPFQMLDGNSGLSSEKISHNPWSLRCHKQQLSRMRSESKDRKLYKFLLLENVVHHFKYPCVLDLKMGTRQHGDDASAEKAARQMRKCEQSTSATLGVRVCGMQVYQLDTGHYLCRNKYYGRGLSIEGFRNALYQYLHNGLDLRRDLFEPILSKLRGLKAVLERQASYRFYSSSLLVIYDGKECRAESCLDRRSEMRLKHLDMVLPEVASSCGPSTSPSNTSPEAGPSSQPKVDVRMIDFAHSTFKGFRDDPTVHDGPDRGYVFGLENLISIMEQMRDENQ

CCCCCCC(C)(C)c1ccc([C@@H]2C[C@H](O)CC[C@H]2CCCO)c(O)c1 [CP55940]
Raw Signal [1]: 55459
Z-score [2]: -0.4322

CC1(C)CCC(NC(=O)[C@@H](N)CCC(=O)O)CC1 [CR 2249]
Raw Signal [1]: 52015
Z-score [2]: -0.3997

Cc1cc(C)c(NC(=O)C[C@H](CC(=O)O)c2cccc3ccccc23)c(C(=O)N2CCC3(CCCC3)CC2)c1 [CR 2945]
Raw Signal [1]: 55023
Z-score [3]: 0.1058

CCCCCCCCCCCCCCCCCCNC(=O)OCC(COP(=O)([O-])OCC[n+]1ccsc1)OC (stereo not drawn) [CV-3988]
Raw Signal [4]: 52703
Z-score [5]: -0.6452

O=C(c1ccc2c(c1)OCCO2)N1CCCCC1 [CX 546]
Raw Signal [6]: 57767
Z-score [7]: 0.528

O=C(O)/C=C/c1ccc(O)c(O)c1 [Caffeic Acid]
Raw Signal [1]: 56687
Z-score [2]: -0.216

O=C(/C=C/c1ccc(O)c(O)c1)OCCc1ccccc1 [Caffeic acid phenethyl ester]
Raw Signal [4]: 53915
Z-score [5]: -0.7042

Cn1c(=O)c2c(ncn2C)n(C)c1=O [Caffeine]
Raw Signal [1]: 57928
Z-score [3]: 0.002624

CNc1ccc2oc(C[C@H]3O[C@@]4(CC[C@H]3C)O[C@H]([C@H](C)C(=O)c3ccc[nH]3)[C@H](C)C[C@H]4C)nc2c1C(=O)O [Calcimycin]
Raw Signal [4]: 66206
Z-score [8]: 1.461

Clc1ccc(C(c2ccc(Cl)cc2)n2cc[n+](CC(OCc3ccc(Cl)cc3Cl)c3ccc(Cl)cc3Cl)c2)cc1 (stereo not drawn) [Calmidazolium chloride]
Raw Signal [1]: 57343
Z-score [2]: -0.1004

CC1(C(=O)O)C2CCC(O2)C1(C)C(=O)O (stereo not drawn) [Cantharidic Acid]
Raw Signal [6]: 61779
Z-score [7]: 0.6809

C[C@@]12C(=O)OC(=O)[C@]1(C)[C@H]1CC[C@@H]2O1 [Cantharidin]
Raw Signal [6]: 61165
Z-score [7]: 0.5727

Oc1cc2c(cc1O)CN(C(=S)NCCc1ccc(Cl)cc1)CCC2 [Capsazepine]
Raw Signal [1]: 54995
Z-score [3]: -0.03494

C[C@H](CS)C(=O)N1CCC[C@H]1C(=O)O [Captopril]
Raw Signal [1]: 58254
Z-score [3]: 0.06004

C[N+](C)(C)CCOC(N)=O [Carbachol]
Raw Signal [6]: 62361
Z-score [7]: 0.7834

NC(=O)N1c2ccccc2C=Cc2ccccc21 [Carbamazepine]
Raw Signal [6]: 60604
Z-score [7]: 0.4739

CCN(CC)CCOCCOC(=O)C1(c2ccccc2)CCCC1 [Carbetapentane citrate]
Raw Signal [4]: 67390
Z-score [8]: 1.669

N.N.O=C([O-])C1(C(=O)[O-])CCC1.[Pt+2] [Carboplatin]
Raw Signal [4]: 53949
Z-score [5]: -0.6982

Cl.Cl.NCCC(=O)NCCc1c[nH]cn1 [Carcinine dihydrochloride]
Raw Signal [4]: 35878
Z-score [5]: -3.881

CCCC(C)(COC(N)=O)COC(=O)NC(C)C (stereo not drawn) [Carisoprodol]
Raw Signal [6]: 61112
Z-score [7]: 0.5634

O=NN(CCCl)C(=O)NCCCl [Carmustine]
Raw Signal [4]: 54247
Z-score [5]: -0.6457

N[C@@H](C(=O)N[C@@H]1C(=O)N2C(C(=O)O)=C(Cl)CS[C@H]12)c1ccccc1 [Cefaclor]
Raw Signal [1]: 57158
Z-score [2]: -0.133

Cc1nnc(SCC2=C(C(=O)O)N3C(=O)[C@@H](NC(=O)Cn4cnnn4)[C@H]3SC2)s1 [Cefazolin sodium]
Raw Signal [1]: 59148
Z-score [3]: 0.2175

CO[C@@]1(NC(=O)CSCC#N)C(=O)N2C(C(=O)O)=C(CSc3nnnn3C)CS[C@@H]21 [Cefmetazole sodium]
Raw Signal [4]: 53279
Z-score [5]: -0.8162

CO/N=C(\C(=O)N[C@@H]1C(=O)N2C(C(=O)O)=C(COC(C)=O)CS[C@H]12)c1csc(N)n1 [Cefotaxime sodium]
Raw Signal [4]: 53540
Z-score [5]: -0.7702

NC(=O)c1cc[n+](CC2=C(C(=O)[O-])N3C(=O)[C@@H](NC(=O)C(c4ccccc4)S(=O)(=O)[O-])[C@H]3SC2)cc1.O.[Na+] (stereo partly drawn) [Cefsulodin sodium salt hydrate]
Raw Signal [1]: 56779
Z-score [2]: -0.1997

CO/N=C(\C(=O)N[C@@H]1C(=O)N2C(C(=O)O)=C(CSc3nc(=O)c(=O)[nH]n3C)CS[C@H]12)c1csc(N)n1 [Ceftriaxone sodium]
Raw Signal [1]: 55787
Z-score [2]: -0.3745

CN(C)CCOC(=O)COc1ccc(Cl)cc1 [Centrophenoxine hydrochloride]
Raw Signal [4]: 69002
Z-score [8]: 1.953

CC1=C(C(=O)O)N2C(=O)[C@@H](NC(=O)[C@H](N)c3ccccc3)[C@H]2SC1.O [Cephalexin hydrate]
Raw Signal [6]: 61524
Z-score [7]: 0.636

CC(=O)OCC1=C(C(=O)[O-])N2C(=O)[C@@H](NC(=O)CCC[C@@H](N)C(=O)[O-])[C@H]2SC1.[Zn+2] [Cephalosporin C zinc salt]
Raw Signal [1]: 57645
Z-score [3]: -0.04722

CC(=O)OCC1=C(C(=O)O)N2C(=O)[C@@H](NC(=O)Cc3cccs3)[C@H]2SC1 [Cephalothin sodium]
Raw Signal [1]: 58709
Z-score [3]: 0.1402

CC(=O)OCC1=C(C(=O)O)N2C(=O)[C@@H](NC(=O)CSc3ccncc3)[C@H]2SC1 [Cephapirin sodium]
Raw Signal [4]: 53491
Z-score [5]: -0.7789

CC1=C(C(=O)O)N2C(=O)[C@@H](NC(=O)[C@H](N)C3=CCC=CC3)[C@H]2SC1 [Cephradine]
Raw Signal [1]: 56353
Z-score [2]: -0.2748

COc1ccc2c(c[n+](C)c3c4cc5c(cc4ccc23)OCO5)c1OC [Chelerythrine chloride]
Raw Signal [4]: 66575
Z-score [8]: 1.5256

O=C(O)c1cc(O)cc(C(=O)O)n1 [Chelidamic acid]
Raw Signal [1]: 56074
Z-score [2]: -0.3239

O=C(O)CCCc1ccc(N(CCCl)CCCl)cc1 [Chlorambucil]
Raw Signal [1]: 57590
Z-score [3]: -0.05691

CN1C(=O)CCS(=O)(=O)C1c1ccc(Cl)cc1 (stereo not drawn) [Chlormezanone]
Raw Signal [4]: 52438
Z-score [5]: -0.5542

CNC(=O)[C@H]1O[C@@H](n2cnc3c(NCc4cccc(I)c4)nc(Cl)nc32)[C@H](O)[C@@H]1O [Chloro-IB-MECA]
Raw Signal [4]: 50053
Z-score [5]: -1.039

CCN(CC)CCCC(C)Nc1ccnc2cc(Cl)ccc12 (stereo not drawn) [Chloroquine diphosphate]
Raw Signal: 55954
Z-score: -0.3451

NS(=O)(=O)c1cc2c(cc1Cl)N=CNS2(=O)=O [Chlorothiazide]
Raw Signal [4]: 49210
Z-score [5]: -1.533

CN(C)CCCN1c2ccccc2Sc2ccc(Cl)cc21 [Chlorpromazine hydrochloride]
Raw Signal [6]: 63674
Z-score [7]: 1.015

CCCNC(=O)NS(=O)(=O)c1ccc(Cl)cc1 [Chlorpropamide]
Raw Signal [1]: 58549
Z-score [3]: 0.112

CN(C)CC/C=C1/c2ccccc2Sc2ccc(Cl)cc21 [Chlorprothixene hydrochloride]
Raw Signal [6]: 61517
Z-score [7]: 0.6347

C[N+](C)(C)CCO.[Br-] [Choline bromide]
Raw Signal: 58990
Z-score: 0.1897

CN(C(=O)CCCOc1ccc2[nH]c(=O)ccc2c1)C1CCCCC1 [Cilostamide]
Raw Signal [4]: 54164
Z-score [5]: -0.6603

O=C1CCc2cc(OCCCCc3nnnn3C3CCCCC3)ccc2N1 [Cilostazol]
Raw Signal [1]: 58165
Z-score [3]: 0.04437

CN/C(=N/CCSCc1nc[nH]c1C)NC#N [Cimetidine]
Raw Signal [6]: 62612
Z-score [7]: 0.8276

CCn1nc(C(=O)O)c(=O)c2cc3c(cc21)OCO3 [Cinoxacin]
Raw Signal [1]: 58068
Z-score [3]: 0.02728

CC(C)(Oc1ccc(C2CC2(Cl)Cl)cc1)C(=O)O (stereo not drawn) [Ciprofibrate]
Raw Signal [6]: 63809
Z-score [7]: 1.038

c1ccc(C2CC2)c(OCC2=NCCN2)c1 [Cirazoline hydrochloride]
Raw Signal [4]: 48676
Z-score [5]: -1.318

N.N.[Cl][Pt][Cl] [Cisplatin]
Raw Signal [4]: 49642
Z-score [5]: -0.7984

CN(C)CCCC1(c2ccc(F)cc2)OCc2cc(C#N)ccc21 (stereo not drawn) [Citalopram hydrobromide]
Raw Signal [1]: 58251
Z-score [3]: 0.05951

C[N+](C)(C)CCOP(=O)([O-])OP(=O)([O-])OC[C@H]1O[C@@H](n2ccc(N)nc2=O)[C@H](O)[C@@H]1O.[Na+] [Citicoline sodium]
Raw Signal [6]: 63989
Z-score [7]: 1.07

Cl.Clc1ccc(Cn2c(CN3CCCC3)nc3ccccc32)cc1 [Clemizole hydrochloride]
Raw Signal [1]: 56495
Z-score [2]: -0.2498

O=P(O)(O)C(Cl)(Cl)P(=O)(O)O [Clodronic acid]
Raw Signal [1]: 56368
Z-score [3]: 0.2439

CCOC(=O)C(C)(C)Oc1ccc(Cl)cc1 [Clofibrate]
Raw Signal [1]: 58171
Z-score [3]: 0.04542

CN(C)CCCN1c2ccccc2CCc2ccc(Cl)cc21 [Clomipramine hydrochloride]
Raw Signal [6]: 60543
Z-score [7]: 0.4632

Clc1cccc(Cl)c1N=C1NCCN1 [Clonidine hydrochloride]
Raw Signal [4]: 54432
Z-score [5]: -0.6131

C#CCN(C)CCCOc1ccc(Cl)cc1Cl [Clorgyline hydrochloride]
Raw Signal [4]: 50699
Z-score [5]: -0.6208

Clc1ccccc1C(c1ccccc1)(c1ccccc1)n1ccnc1 [Clotrimazole]
Raw Signal [6]: 61041
Z-score [7]: 0.5509

CN1CCN(C2=Nc3cc(Cl)ccc3Nc3ccccc32)CC1 [Clozapine]
Raw Signal [4]: 54825
Z-score [5]: -0.5439

COc1cc2c(c(OC)c1OC)-c1ccc(OC)c(=O)cc1[C@@H](NC(C)=O)CC2 [Colchicine]
Raw Signal [1]: 58343
Z-score [3]: 0.07572

C[C@]12CCC(=O)C=C1CC[C@@H]1[C@@H]2CC[C@@]2(C)[C@H]1CC[C@]2(O)C(=O)CO [Cortexolone]
Raw Signal [1]: 55575
Z-score [3]: -0.08719
